2 compounds from patent US8207212B2, “Methods and devices for epithelial protection during photodynamic therapy” (The General Hospital Corporation, priority 2003, dated 2012) can be followed below.

The test system of test [1] is rat epidermal keratinocyte (REK) cells. Nature of the test: PpIX formation in rat epidermal keratinocyte cells incubated with ALA at different temperatures. In kind it is cell-based. Particulars: 0.5 mM ALA, after three hours (FIG. 2). The method, then:
Two trials of rat epidermal keratinocyte (REK) cells were incubated with 0.5 mM ALA at temperatures of 21° C. and 37° C., respectively, for varying times. […] Accordingly, a temperature gradient of about 16° C. is more than sufficient to inhibit metabolism of a photosensitizing agent in epidermal tissue surrounding a targeted treatment site.
Several trials of rat epidermal keratinocyte (REK) cells were incubated with various amounts of ALA ranging from 0.1 mM to 0.5 mM, at various temperatures ranging from 15° C. to 40° C.

For test [2] the test system is unchanged. Nature of the test: Effect of DOHA pre-incubation on ALA-induced PpIX formation in REK cells. In kind it is cell-based. The following applies: washed, then 0.25 mM ALA for 3 hours (FIG. 4). As to the method:
Several trials of rat epidermal keratinocyte (REK) cells were pre-incubated with various amounts of 4-dioxoheptanoic acid (DOHA) ranging from 1^−8 M to 1^−4 M. The cells were then washed, and incubated with 0.25 mM ALA for 3 hours.

The test system of test [3] is human skin. The test can be described thus: PpIX fluorescence imaging in human skin after topical DOHA followed by topical ALA. The following applies: human skin in vivo, DOHA topical 0.1%, 0.3%, 1% for 1 hour, followed by topical 5% ALA (FIG. 6). The method, then:
DOHA was topically applied to human skin in concentrations of (a) 0.1%, (b) 0.3%, and (c) 1% for 1 hour, followed by topical application of 5% ALA. PpIX fluorescence was then imaged.

Turning to `NCC(=O)CCC(=O)O` [ALA, aminolevulinic acid], the PpIX concentration entry in test [1] (21° C.) is “less than 50 pmol/10^6”; in test [1] (37° C.), “greater than 400 pmol/10^6”.

Regarding `CC(=O)CC(=O)CCC(=O)O` [DOHA, 4-dioxoheptanoic acid], the PpIX formation result in test [2] (REK cells pre-incubated with DOHA at concentrations greater than 10^−5 M) is given as “even further chemical inhibition”; in test [2] (REK cells pre-incubated with DOHA at concentrations greater than 10^−7 M) it was “significantly inhibited”. Moreover, in test [3], the “PpIX formation (fluorescence)” value was “effective to chemically inhibit PpIX formation”.
